Measurements as given in PubChem BioAssay (NCI).
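Grown in 96-well plates, cells were treated for 48 hours with each compound at five concentrations. Insufficient inhibition: endpoint recorded as highest concentration tested. At the GI50, growth is halved. TGI denotes the concentration required for complete inhibition of growth.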

Tests used:
Test in all cases: DTP human tumour cell line panel, 48 h
786-0 renal = test system: 786-0 renal
DU-145 prostate = test system: DU-145 prostate
HCT-116 colon = test system: HCT-116 colon
HCT-15 colon = test system: HCT-15 colon
NCI-H460 lung = test system: NCI-H460 lung
NCI/ADR-RES ovarian = test system: NCI/ADR-RES ovarian
OVCAR-3 ovarian = test system: OVCAR-3 ovarian
SF-268 CNS = test system: SF-268 CNS
SK-OV-3 ovarian = test system: SK-OV-3 ovarian
U251 CNS = test system: U251 CNS

Structure (SMILES)	GI50 (786-0 renal)	TGI (786-0 renal)	GI50 (DU-145 prostate)	TGI (DU-145 prostate)	GI50 (HCT-116 colon)	TGI (HCT-116 colon)	GI50 (HCT-15 colon)	TGI (HCT-15 colon)	GI50 (NCI-H460 lung)	TGI (NCI-H460 lung)	GI50 (NCI/ADR-RES ovarian)	TGI (NCI/ADR-RES ovarian)	GI50 (OVCAR-3 ovarian)	TGI (OVCAR-3 ovarian)	GI50 (SF-268 CNS)	TGI (SF-268 CNS)	GI50 (SK-OV-3 ovarian)	TGI (SK-OV-3 ovarian)	GI50 (U251 CNS)	TGI (U251 CNS)
Cc1ccc2oc(=O)cc(/C(=C3/C=CC=N3)c3ccc[nH]3)c2c1	0.279 µM	0.892 µM	0.361 µM	10.8 µM	0.375 µM	1.79 µM	0.298 µM	10.1 µM	0.353 µM	3.52 µM	0.314 µM	3.77 µM	0.271 µM	0.707 µM	0.526 µM	6.73 µM	0.264 µM	0.815 µM	0.319 µM	1.57 µM
O=C1C(=C(C(F)(F)Cl)C(F)(F)Cl)C2CCC1C2 (stereo not given)	–	3.64 µM	–	> 10 µM	–	3.61 µM	–	3.97 µM	–	> 7.96 µM	–	5.18 µM	–	> 6.36 µM	–	> 6.62 µM	–	> 10 µM	–	> 10 µM
Cn1c(=O)c(Oc2ccc(F)cc2F)cc2cnc(NC(C)(C)CO)nc21	> 25 µM	> 25 µM	> 25 µM	> 25 µM	> 25 µM	> 25 µM	> 25 µM	> 25 µM	> 25 µM	> 25 µM	> 25 µM	> 25 µM	> 25 µM	> 25 µM	> 25 µM	> 25 µM	> 25 µM	> 25 µM	> 25 µM	> 25 µM
COC(=O)c1ccc2c(c1)C(=O)c1c-2n(CCCCl)c(=O)c2cc([N+](=O)[O-])ccc12	63.5 µM	> 100 µM	37.2 µM	> 100 µM	42.1 µM	> 100 µM	> 100 µM	> 100 µM	23.1 µM	> 100 µM	> 100 µM	> 100 µM	96.6 µM	> 100 µM	42.2 µM	> 100 µM	> 100 µM	> 100 µM	53.1 µM	> 100 µM
CC1CCN(Cc2ccc(NC(=O)c3cc4ccc5cccnc5c4[nH]3)cc2)CC1	2.71 µM	8.46 µM	8.79 µM	> 100 µM	4.18 µM	19.6 µM	3.07 µM	18.5 µM	4.16 µM	28.1 µM	17.3 µM	68.9 µM	7.83 µM	39.2 µM	7.07 µM	40.9 µM	6.98 µM	42.5 µM	2.8 µM	10.3 µM
CCCCN1CCCC[C@@H]1C(=O)N[C@H](C(=O)N(C)[C@H](C[C@@H](OC(C)=O)c1nc(C(=O)NC2CCC(C(=O)OC)CC2)cs1)C(C)C)C(C)C (stereo not given in full)	1.5 µM	> 25 µM	1.31 µM	> 25 µM	1 µM	> 25 µM	0.851 µM	16.8 µM	1.08 µM	> 25 µM	3.53 µM	> 25 µM	1.07 µM	> 25 µM	2.29 µM	> 25 µM	2.14 µM	> 25 µM	1.18 µM	> 25 µM
C[C@H]1/C(=C/C(=O)OCCN(C)C)CC[C@H]2[C@H]1C(=O)C[C@H]1C(C)(C)[C@@H](O)CC[C@]21C	–	> 100 µM	–	> 100 µM	–	> 100 µM	–	> 100 µM	–	> 100 µM	–	> 100 µM	–	> 100 µM	–	> 100 µM	–	> 100 µM	–	> 100 µM
COc1ccc(C#Cc2ccc(=O)oc2-c2cc(OC)c(OC)c(OC)c2)cc1O	5.49 µM	> 33.2 µM	8.96 µM	> 85.9 µM	3.28 µM	> 100 µM	2.86 µM	> 100 µM	0.973 µM	> 100 µM	2.6 µM	> 40.6 µM	1.81 µM	28.5 µM	7.23 µM	> 90.8 µM	6.58 µM	> 83.1 µM	5.4 µM	> 100 µM
CC(=O)/C(=C/c1ccccc1)C(=O)CC(C)C	17.5 µM	32.5 µM	14.4 µM	28 µM	2.05 µM	3.97 µM	4.69 µM	22.3 µM	17.5 µM	38.5 µM	18.2 µM	58.9 µM	4.69 µM	15.9 µM	14.3 µM	33 µM	31.8 µM	99 µM	4.86 µM	17.7 µM
O=C(CCl)NCCNc1nccc(Nc2ccc(S(=O)(=O)Nc3ccccn3)cc2)n1	3.25 µM	11.7 µM	2.45 µM	12.3 µM	1.54 µM	5.53 µM	1.62 µM	4.38 µM	2.39 µM	7.22 µM	2.96 µM	83.2 µM	1.77 µM	6.17 µM	2.63 µM	12.9 µM	4.67 µM	42.8 µM	1.21 µM	3.43 µM
CCCCC(CCCCCC(CCCC)NCc1ccc2c(c1)OCO2)NCc1ccc2c(c1)OCO2 (stereo not given)	1.25 µM	2.53 µM	0.803 µM	2.04 µM	0.194 µM	0.369 µM	0.326 µM	1.09 µM	0.236 µM	0.519 µM	0.711 µM	1.93 µM	0.936 µM	2.25 µM	0.905 µM	2.22 µM	1.77 µM	3.16 µM	0.207 µM	0.438 µM
CC/C=C\C[C@H](F)C/C=C1/C(=O)C=C[C@@H]1C/C=C\CCCC(=O)OC	2.56 µM	9.55 µM	3.17 µM	9.81 µM	0.88 µM	1.79 µM	1.19 µM	4.42 µM	1.44 µM	4.11 µM	1.71 µM	35 µM	2.05 µM	6.9 µM	1.86 µM	7.23 µM	10.5 µM	32.1 µM	1.86 µM	6.57 µM
CCCCCCCCCCCCCCCCCc1nccn1CCOCCO	6.19 µg/mL	11.7 µg/mL	5.34 µg/mL	10.4 µg/mL	5.94 µg/mL	11.9 µg/mL	6.36 µg/mL	12.2 µg/mL	5.66 µg/mL	11.9 µg/mL	20.4 µg/mL	37.5 µg/mL	4.74 µg/mL	9.64 µg/mL	5.16 µg/mL	10.4 µg/mL	5.67 µg/mL	10.8 µg/mL	4.52 µg/mL	9.62 µg/mL
C[C@@]1(C(=O)O)CCC[C@]2(C)C1CC[C@@]13C[C@@](O)(CC[C@]12O)[C@@]1(CO1)C3 (stereo not given in full)	> 100 µM	> 100 µM	> 100 µM	> 100 µM	> 100 µM	> 100 µM	> 100 µM	> 100 µM	> 100 µM	> 100 µM	> 100 µM	> 100 µM	> 100 µM	> 100 µM	> 100 µM	> 100 µM	> 100 µM	> 100 µM	> 100 µM	> 100 µM
O=c1oc2ccc(I)cc2c(=O)n1-c1ccc(F)cc1F	3.03 µM	9.67 µM	3.57 µM	58.5 µM	2.14 µM	5.2 µM	2.71 µM	11.4 µM	2.8 µM	12.8 µM	2.64 µM	13.4 µM	2.67 µM	13 µM	2.86 µM	27.1 µM	1.16 µM	4.17 µM	2.64 µM	19 µM
CC(C)N1CCN(c2ccncc2S(=O)(=O)N2CCCCC2)CC1	–	> 100 µM	–	> 100 µM	–	> 100 µM	–	> 100 µM	–	> 100 µM	–	> 100 µM	–	> 100 µM	–	> 100 µM	–	> 100 µM	–	> 100 µM
O=C1/C=C/[C@@H](O)[C@@H]2C[C@@H](O)C[C@H]2/C=C/CCC[C@H](CCc2cccc3ccccc23)O1	0.02 µM	0.0372 µM	0.377 µM	14.7 µM	0.12 µM	0.283 µM	0.326 µM	10.5 µM	0.274 µM	12.2 µM	0.0389 µM	1.86 µM	0.0395 µM	1.83 µM	0.0365 µM	12.3 µM	0.064 µM	12 µM	0.0475 µM	12.1 µM
Oc1ccc(Nc2ccc3ccccc3c2)cc1	3.78 µM	15.5 µM	4.87 µM	19.2 µM	9.23 µM	24 µM	3.96 µM	23.5 µM	4.27 µM	15.8 µM	4.4 µM	67 µM	5.66 µM	19 µM	4.94 µM	29.4 µM	17.2 µM	> 100 µM	4.83 µM	23.9 µM
CSC(=NC#N)S/C=C/C(=O)c1ccccc1	33.7 µM	> 100 µM	20.6 µM	46.3 µM	17.9 µM	34.1 µM	34.8 µM	> 100 µM	> 100 µM	> 100 µM	31.3 µM	99.3 µM	31.5 µM	> 100 µM	43.8 µM	> 100 µM	> 100 µM	> 100 µM	40.3 µM	> 100 µM
O=C1CSC(=S)N1c1ccco1	–	61 µM	–	> 100 µM	–	> 100 µM	–	50.9 µM	–	> 100 µM	–	> 100 µM	–	> 100 µM	–	> 100 µM	–	> 100 µM	–	> 100 µM
O=C(CC1(O)C(=O)N(Cc2ccccc2)c2ccc(Cl)cc21)c1ccc(C(=O)NCC2CCC3(CC2)OOC2(CCCCC2)OO3)cc1 (stereo not given)	0.192 µM	0.367 µM	0.179 µM	0.326 µM	1.3 µM	4.29 µM	0.573 µM	2.43 µM	0.231 µM	0.491 µM	0.271 µM	0.833 µM	0.197 µM	0.419 µM	1.4 µM	3.67 µM	3.48 µM	> 21.1 µM	0.211 µM	0.426 µM
O=c1c2ccc(S(=O)(=O)c3ccc4c(=O)n5c6ccccc6nc5c5cccc3c45)c3cccc(c32)c2nc3ccccc3n12	–	> 100 µM	–	> 100 µM	–	> 100 µM	–	> 100 µM	–	> 100 µM	–	> 100 µM	–	> 100 µM	–	> 100 µM	–	31.6 µM	–	35.5 µM
C=C1CC2(CC(c3ccccc3Cl)OC(c3ccccc3Cl)C2)OC1=O (stereo not given)	–	4.66 µM	–	14.4 µM	–	3.17 µM	–	5.58 µM	–	12.6 µM	–	8.55 µM	–	5.96 µM	–	5.62 µM	–	16.9 µM	–	15.6 µM
COC1C(O)CC(OC2CC(OC3CC(O[C@@H]4C(=O)c5c(cc6cc(OC7CC(OC8CC(O)C(O)C(C)O8)C(O)C(C)O7)c(C)c(O)c6c5O)CC4[C@H](OC)C(=O)O)OC(C)C3O)OC(C)C2O)OC1C (stereo not given in full)	2.1 µM	> 33.3 µM	1.96 µM	> 33.3 µM	1.25 µM	> 33.3 µM	6.3 µM	> 33.3 µM	1.31 µM	> 33.3 µM	10.3 µM	> 33.3 µM	2.06 µM	> 33.3 µM	2.64 µM	> 33.3 µM	2.24 µM	> 33.3 µM	1.53 µM	> 33.3 µM
C=C(CN1CCN(c2ccc(C(F)(F)F)cc2)CC1)c1ccc(C(=O)Nc2ccccc2N)cc1	2.85 µM	> 100 µM	21 µM	> 100 µM	11.4 µM	> 100 µM	> 100 µM	> 100 µM	3.44 µM	> 100 µM	3.37 µM	> 100 µM	12 µM	> 100 µM	6.78 µM	> 100 µM	12.1 µM	> 100 µM	6.25 µM	31 µM
Cc1c(-c2ccc(C3CCCCC3)cc2)nc2ccc(F)cc2c1C(=O)O	0.235 µM	> 100 µM	0.802 µM	> 100 µM	0.0508 µM	> 100 µM	0.0196 µM	> 100 µM	0.0461 µM	> 100 µM	0.609 µM	> 100 µM	0.475 µM	> 100 µM	0.405 µM	> 100 µM	> 100 µM	> 100 µM	0.0588 µM	> 100 µM
Cc1c2ccn(O)cc2c(C)c2c1nc1ccccc12	–	35.4 µM	–	> 100 µM	–	24.7 µM	–	> 100 µM	–	37.9 µM	–	> 100 µM	–	> 81.7 µM	–	27.5 µM	–	39.6 µM	–	16.7 µM
